Results from patent US20260209152A1, “Substituted Hydroxystilbene Compounds and Derivatives, Synthesis and Uses Thereof” (Kynan Duke IP, LLC, priority 2019, published 2026).
Where two headings read alike, the source gives them in different places. Each block holds one molecule with its values, some of them ahead of it.

Tests used:
Test in all cases: CellTiter Glo cell viability assay
Liver JHH-7 = type: cell-based, human; details: for IC50: Homo sapiens, JHH7, 72 h, 3 Days of treatment, 18 2-fold dilutions 5-0.00003 μM
In short: (§1)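 Cells seeded at 1.7*10^3/well in quadruplicate; compounds at 18 two-fold dilutions from 5 μM (0.000038146-5 μM), or at 1, 2, 5, 10 and 20 μM. CellTiter Glo luminescence read on days 1, 3 and 5 after treatment. IC50 by nonlinear regression of luminescence versus log dose.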

Osteosarcomas Hs888.T = type: cell-based, human; details: for IC50: Homo sapiens, 72 h, 3 Days of treatment, 18 2-fold dilutions 5-0.00003 μM
In short: as §1

Kidney SK-NEP-1 = type: cell-based, human; details: for IC50: Homo sapiens, SK-NEP-1, 72 h, 3 Days of treatment, 18 2-fold dilutions 5-0.00003 μM
In short: as §1

Kidney 786-O = type: cell-based, human; details: for IC50: Homo sapiens, 786-0, 72 h, 3 Days of treatment, 18 2-fold dilutions 5-0.00003 μM
In short: as §1

[1] = test system: Osteosarcomas HOS_CRL_1543; type: cell-based, human; details: for IC50: Homo sapiens, 72 h, 3 Days of treatment, 18 2-fold dilutions 5-0.00003 μM
In short: as §1

Breast MCF7 = type: cell-based, human; details: for IC50: Homo sapiens, MCF7, 72 h, 3 Days of treatment, 18 2-fold dilutions 5-0.00003 μM
In short: as §1

Bladder 5637 = type: cell-based, human; details: for IC50: Homo sapiens
In short: as §1

Tongue SCC-25 = type: cell-based, human; details: for IC50: Homo sapiens, SCC-25, 72 h, 3 Days of treatment, 18 2-fold dilutions 5-0.00003 μM
In short: as §1

Lung NCI-H661 = type: cell-based, human; details: for IC50: Homo sapiens, NCI-H661, 72 h, 3 Days of treatment, 18 2-fold dilutions 5-0.00003 μM
In short: as §1

Tongue SCC-15 = type: cell-based, human; details: for IC50: Homo sapiens, SCC-15, 72 h, 3 Days of treatment, 18 2-fold dilutions 5-0.00003 μM
In short: as §1

Colon HCT_116 = type: cell-based, human; details: for IC50: Homo sapiens
In short: as §1

Kidney HTB-45 = type: cell-based, human; details: for IC50: Homo sapiens, 72 h, 3 Days of treatment, 18 2-fold dilutions 5-0.00003 μM
In short: as §1

Pancreatic CAPAN-2 = type: cell-based, human; details: for IC50: Homo sapiens, Capan-2, 72 h, 3 Days of treatment, 18 2-fold dilutions 5-0.00003 μM
In short: as §1

Bladder J82 = type: cell-based, human; details: for IC50: Homo sapiens, 72 h, 3 Days of treatment, 18 2-fold dilutions 5-0.00003 μM
In short: as §1

Liposarcoma 93T449 = type: cell-based, human; details: for IC50: Homo sapiens, 72 h, 3 Days of treatment, 18 2-fold dilutions 5-0.00003 μM
In short: as §1

Lung NCI-H596 = type: cell-based, human; details: for IC50: Homo sapiens, NCI-H596, 72 h, 3 Days of treatment, 18 2-fold dilutions 5-0.00003 μM
In short: as §1

Pancreatic CFPAC = type: cell-based, human; details: for IC50: Homo sapiens, 72 h, 3 Days of treatment, 18 2-fold dilutions 5-0.00003 μM
In short: as §1

Liver JHH-6 = type: cell-based, human; details: for IC50: Homo sapiens, 72 h, 3 Days of treatment, 18 2-fold dilutions 5-0.00003 μM
In short: as §1

Fibrosarcomas SW 684 = type: cell-based, human; details: for IC50: Homo sapiens, SW684, 72 h, 3 Days of treatment, 18 2-fold dilutions 5-0.00003 μM
In short: as §1

Tongue SCC-9 = type: cell-based, human; details: for IC50: Homo sapiens, SCC-9, 72 h, 3 Days of treatment, 18 2-fold dilutions 5-0.00003 μM
In short: as §1

Liposarcoma 94T778 = type: cell-based, human; details: for IC50: Homo sapiens, 72 h, 3 Days of treatment, 18 2-fold dilutions 5-0.00003 μM
In short: as §1

Leiomyosarcoma SK-LMS-1 = type: cell-based, human; details: for IC50: Homo sapiens, SK-LMS-1, 72 h, 3 Days of treatment, 18 2-fold dilutions 5-0.00003 μM
In short: as §1

Osteosarcomas T1-73 = type: cell-based, human; details: for IC50: Homo sapiens, 72 h, 3 Days of treatment, 18 2-fold dilutions 5-0.00003 μM
In short: as §1

Osteosarcomas KHOS_N/P = type: cell-based, human; details: for IC50: Homo sapiens, KHOS/NP, 72 h, 3 Days of treatment, 18 2-fold dilutions 5-0.00003 μM
In short: as §1

Breast 4T1 = type: cell-based; details: Table 5B: 11 dilutions 3-0.00001 μM; Exp N
Description: 1.7*10^3 cells/well were seeded in quadruplicates in 96-well plate after plating. Drugs were added at 5 μM and 2-fold dilutions over 18 concentrations (0.000038146-5 […] range) to generate a dose-response curve. Cell growth was assessed on day 1, 3 and 5 after drug treatments using the CellTiter Glo Luminescence Cell Viability Assay (Promega) according to manufacturer's protocol. Thermo Scientific Varioskan LUX Multimode Microplate instrument was used for plate reading. Data are expressed as mean luminescence (arbitrary units) ±S.D.
Cell Viability Assays were employed to determine the concentration of Compound 1 (KYN-001) and analogues where the response is reduced by half. For each treatment of cancer cells, 1, 2, 5, 10 and 20 μM solutions of compounds were applied. GraphPad Prism 7 software was used to fit dose response curves. Relative Luminescence Units were plotted against the log values of the doses used and the nonlinear regression model was used for data analysis.

[2] = 72 h, 3 Days of treatment, 18 2-fold dilutions 5-0.00003 μM, read-out: Average IC50
[3] = 120 h, Day 5 upon drug treatment, 10 dosages 0.0001-20 μM (Compound 8: 18 dosages 0.000038146 to 5 μM), read-out: IC50
[4] = HCT-116, 72 h, 3 Days of treatment, 18 2-fold dilutions 5-0.00003 μM, read-out: Average IC50
[5] = HCT-116, 120 h, Day 5 upon drug treatment, 10 dosages 0.0001-20 μM (Compound 8: 18 dosages 0.000038146 to 5 μM), read-out: IC50
[6] = IC50 of 1 [KYN-001] vs 8 [KYN-119], 3 Days

IC50 (Kidney SK-NEP-1): 158 nM
IC50 (Kidney 786-O): 334 nM
IC50 (Breast MCF7): 694 nM
IC50 (Lung NCI-H661): 36.6 nM
IC50 (Colon HCT_116; [4]): 416 nM
IC50 (Colon HCT_116; [5]): 165 nM
IC50 (Liposarcoma 93T449): 55.5 nM
IC50 (Lung NCI-H596): 303 nM
IC50 (Liposarcoma 94T778): 84.5 nM
IC50 (Leiomyosarcoma SK-LMS-1): 65.9 nM
IC50 (Breast 4T1): 117 nM
SMILES: COc1cc(/C=C/c2cc(O)cc(OC)c2CC=C(C)C)ccc1O [Compound 1, (E)-3-(4-hydroxy-3-methoxystyryl)-5-methoxy-4-(3-methylbut-2-en-1-yl)phenol]
IC50 (Liver JHH-7): 696 nM
IC50 (Osteosarcomas Hs888.T): 210 nM
IC50 [1]: 358 nM
IC50 (Bladder 5637; [2]): 34.7 nM
IC50 (Bladder 5637; [3]): 30.6 nM
IC50 (Tongue SCC-25): 744 nM
IC50 (Tongue SCC-15): 17 nM
IC50 (Kidney HTB-45): 1730 nM
IC50 (Pancreatic CAPAN-2): 182 nM
IC50 (Bladder J82): 184 nM
IC50 (Pancreatic CFPAC): 492 nM
IC50 (Liver JHH-6): 172 nM
IC50 (Fibrosarcomas SW 684): 55.2 nM
IC50 (Tongue SCC-9): 181 nM
IC50 (Osteosarcomas T1-73): 804 nM
IC50 (Osteosarcomas KHOS_N/P): 68.7 nM

IC50 (Kidney SK-NEP-1): 17.8 nM
Fold IC50 (Kidney SK-NEP-1; [6]): 8.9
IC50 (Kidney 786-O): 64.8 nM
Fold IC50 (Kidney 786-O; [6]): 5.1
IC50 (Breast MCF7): 136 nM
Fold IC50 (Breast MCF7; [6]): 5.1
IC50 (Lung NCI-H661): 11.5 nM
Fold IC50 (Lung NCI-H661; [6]): 3.2
IC50 (Colon HCT_116; [4]): 35.5 nM
IC50 (Colon HCT_116; [5]): 28 nM
Fold IC50 (Colon HCT_116; [6]): 12
IC50 (Liposarcoma 93T449): 15.1 nM
Fold IC50 (Liposarcoma 93T449; [6]): 3.7
IC50 (Lung NCI-H596): 115 nM
Fold IC50 (Lung NCI-H596; [6]): 2.6
IC50 (Liposarcoma 94T778): 25.7 nM
Fold IC50 (Liposarcoma 94T778; [6]): 3.3
IC50 (Leiomyosarcoma SK-LMS-1): 17.5 nM
Fold IC50 (Leiomyosarcoma SK-LMS-1; [6]): 3.8
SMILES: CCOc1cc(O)cc(/C=C/c2ccc(O)c(OC)c2)c1CC=C(C)C [Compound 8, (E)-3-Ethoxy-5-(4-hydroxy-3-methoxystyryl)-4-(3-methylbut-2-en-1-yl)phenol]
IC50 (Liver JHH-7): 519 nM
Fold IC50 (Liver JHH-7; [6]): 1.3
IC50 (Osteosarcomas Hs888.T): 26.1 nM
Fold IC50 (Osteosarcomas Hs888.T; [6]): 8.1
IC50 [1]: 32 nM
Fold IC50 [1, 6]: 11
IC50 (Bladder 5637; [2]): 3.91 nM
IC50 (Bladder 5637; [3]): ~9.43 nM
Fold IC50 (Bladder 5637; [6]): 8.9
IC50 (Tongue SCC-25): 276 nM
Fold IC50 (Tongue SCC-25; [6]): 2.7
IC50 (Tongue SCC-15): 14.9 nM
Fold IC50 (Tongue SCC-15; [6]): 1.1
IC50 (Kidney HTB-45): 463 nM
Fold IC50 (Kidney HTB-45; [6]): 3.7
IC50 (Pancreatic CAPAN-2): 9.75 nM
Fold IC50 (Pancreatic CAPAN-2; [6]): 19
IC50 (Bladder J82): 46.5 nM
Fold IC50 (Bladder J82; [6]): 4.0
IC50 (Pancreatic CFPAC): 82.4 nM
Fold IC50 (Pancreatic CFPAC; [6]): 6.0
IC50 (Liver JHH-6): 36.4 nM
Fold IC50 (Liver JHH-6; [6]): 4.7
IC50 (Fibrosarcomas SW 684): 4.63 nM
Fold IC50 (Fibrosarcomas SW 684; [6]): .12
IC50 (Tongue SCC-9): 75.5 nM
Fold IC50 (Tongue SCC-9; [6]): 2.4
IC50 (Osteosarcomas T1-73): 3.93 nM
Fold IC50 (Osteosarcomas T1-73; [6]): 205
IC50 (Osteosarcomas KHOS_N/P): 10.5 nM
Fold IC50 (Osteosarcomas KHOS_N/P; [6]): 6.6

SMILES: COc1cc(/C=C/c2cc(O)cc(OC)c2CC=C(C)C)ccc1NC=O [Compound 27, (E)-N-(4-(5-hydroxy-3-methoxy-2-(3-methylbut-2-en-1-yl)styryl)-2-methoxyphenyl)formamide]
IC50 (Breast 4T1): 29.2 nM
